In experiment [1] the target is T1, Monoamine oxidase type A, MAOA (r) (Rattus norvegicus, UniProt P21396).
T1 sequence (P21396 1-526): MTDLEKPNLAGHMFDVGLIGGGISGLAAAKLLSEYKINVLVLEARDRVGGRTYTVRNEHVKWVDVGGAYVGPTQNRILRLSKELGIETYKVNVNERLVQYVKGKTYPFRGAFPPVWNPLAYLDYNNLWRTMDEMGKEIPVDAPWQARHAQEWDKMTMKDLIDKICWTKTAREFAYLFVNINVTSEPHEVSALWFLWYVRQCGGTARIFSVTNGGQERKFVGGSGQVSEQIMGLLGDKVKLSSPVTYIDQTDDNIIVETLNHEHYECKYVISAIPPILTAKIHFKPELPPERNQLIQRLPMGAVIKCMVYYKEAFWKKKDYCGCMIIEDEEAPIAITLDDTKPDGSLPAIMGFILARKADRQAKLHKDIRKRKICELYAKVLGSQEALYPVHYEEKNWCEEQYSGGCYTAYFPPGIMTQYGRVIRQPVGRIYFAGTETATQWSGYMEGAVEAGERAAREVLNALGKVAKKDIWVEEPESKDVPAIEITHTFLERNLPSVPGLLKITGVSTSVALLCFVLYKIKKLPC
Description: IPP MAOA binding (antagonist radioligand). The conditions noted are these: IPP screening at 10 uM; control clorgyline.

Experiment [2] concerns the target T2, Muscarinic acetylcholine receptor M1, CHRM1 (h) (Homo sapiens, UniProt P11229).
T2 construct: purchased Eurofins Cerep (SafetyScreen44-based IPP panel)
T2 sequence (P11229 1-460): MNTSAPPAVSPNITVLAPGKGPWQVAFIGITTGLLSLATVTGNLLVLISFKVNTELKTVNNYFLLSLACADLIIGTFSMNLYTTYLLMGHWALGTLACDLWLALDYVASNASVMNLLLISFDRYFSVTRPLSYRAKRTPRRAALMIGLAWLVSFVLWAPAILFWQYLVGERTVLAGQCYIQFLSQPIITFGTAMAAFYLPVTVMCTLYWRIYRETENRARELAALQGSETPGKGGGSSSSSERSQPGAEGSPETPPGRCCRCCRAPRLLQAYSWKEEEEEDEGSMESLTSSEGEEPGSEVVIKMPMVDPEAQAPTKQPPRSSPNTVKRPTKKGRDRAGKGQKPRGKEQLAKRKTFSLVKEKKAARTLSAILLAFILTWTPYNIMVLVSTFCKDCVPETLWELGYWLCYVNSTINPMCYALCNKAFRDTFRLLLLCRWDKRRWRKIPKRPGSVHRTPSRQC
Format: binding. The conditions noted are these: control pirenzepine.

In experiment [3] the target is T3, Beta-2 adrenergic receptor, ADRB2 (h) (Homo sapiens, UniProt P07550).
T3 construct: purchased Eurofins Cerep (SafetyScreen44-based IPP panel)
Description: IPP ADRB2 binding (antagonist radioligand). To be noted: control ICI 118551.

Experiment [4] deals with Sodium channel protein type 5 subunit alpha (site 2), SCN5A (r). Type of experiment: binding, rat.
Experiment [5] concerns the target T4, Muscarinic acetylcholine receptor M3, CHRM3 (h) (Homo sapiens, UniProt P20309).
T4 construct: purchased Eurofins Cerep (SafetyScreen44-based IPP panel)
Format: binding. The conditions noted are these: 10 uM; ligand/control 4-DAMP.

Experiment [6] deals with T5, Angiotensin II receptor Type-1, AGTR1 (h) (Homo sapiens, UniProt P30556).
T5 construct: purchased Eurofins Cerep (SafetyScreen44-based IPP panel)
T5 sequence (P30556 1-359): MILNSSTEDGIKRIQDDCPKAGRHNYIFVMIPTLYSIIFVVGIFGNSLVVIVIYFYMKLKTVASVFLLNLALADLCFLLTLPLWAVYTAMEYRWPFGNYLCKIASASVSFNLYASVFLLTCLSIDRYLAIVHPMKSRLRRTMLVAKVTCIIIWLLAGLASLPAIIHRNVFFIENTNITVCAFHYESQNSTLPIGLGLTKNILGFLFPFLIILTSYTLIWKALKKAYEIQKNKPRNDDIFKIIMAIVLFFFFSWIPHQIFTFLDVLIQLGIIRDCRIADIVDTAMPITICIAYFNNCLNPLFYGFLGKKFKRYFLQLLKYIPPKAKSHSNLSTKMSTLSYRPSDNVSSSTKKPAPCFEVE
Kind of experiment: IPP AGTR1 binding. The conditions noted are these: ligand/control Saralasin.

The subject of experiment [7] is HepaRG cells. Description: High-throughput transcriptomics (HTTr, TempO-Seq), HepaRG, 24 h. Type of experiment: cell-based, human. To be noted: HepaRG; for pod_httr_bifrost PoD: HTTr BIFROST PoD; for podl_path_minbmd PoD: HTTr minimum pathway BMD(L). As to the method: (§1) HepG2, HepaRG, and MCF7 cells were treated with each compound for 24 h across a dose range of 7 concentrations and lysed using TempO-Seq lysis buffer (BioSpyder Technologies, proprietary kit, see [Middleton et al. 2022] for method details). Sequencing was performed using TempO-Seq (BioClavis) version 2 of the human whole transcriptome panel and analyzed as described previously in Middleton et al.

Experiment [8] has as its system MCF7 cells. Kind of experiment: High-throughput transcriptomics (HTTr, TempO-Seq), MCF7, 24 h. Format: cell-based, human. The conditions noted are these: MCF-7; for pod_httr_bifrost PoD: HTTr BIFROST PoD; for podl_path_minbmd PoD: HTTr minimum pathway BMD(L). As to the method: as §1
Experiment [9] has as its target T6, Endothelin-1 receptor, EDNRA (h) (Homo sapiens, UniProt P25101).
T6 sequence (P25101 21-427): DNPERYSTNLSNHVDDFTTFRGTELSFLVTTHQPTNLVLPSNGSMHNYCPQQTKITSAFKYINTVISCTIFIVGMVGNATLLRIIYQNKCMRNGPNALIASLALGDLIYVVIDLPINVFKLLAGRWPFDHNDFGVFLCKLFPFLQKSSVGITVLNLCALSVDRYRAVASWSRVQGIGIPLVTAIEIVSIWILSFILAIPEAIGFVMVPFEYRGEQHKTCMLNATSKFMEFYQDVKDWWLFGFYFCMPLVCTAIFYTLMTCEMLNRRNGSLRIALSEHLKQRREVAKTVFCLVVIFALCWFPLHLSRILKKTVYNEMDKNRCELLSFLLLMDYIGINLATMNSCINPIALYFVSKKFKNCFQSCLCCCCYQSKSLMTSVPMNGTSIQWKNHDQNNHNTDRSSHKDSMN
To be noted: control endothelin-1.

Experiment [10] has as its target Dopamine receptor D1, DRD1 (h) (Homo sapiens, UniProt P21728). To be noted: control SCH 23390.
Experiment [11] concerns the target 5-hydroxytryptamine receptor 2B, HTR2B (h) (Homo sapiens, UniProt P41595).
For experiment [12], the target named is Mu-type opioid receptor, OPRM1 (h) (Homo sapiens, UniProt P35372). The conditions noted are these: control DAMGO.
Experiment [13] has as its target Sodium-dependent noradrenaline transporter, SLC6A2 (h) (Homo sapiens, UniProt P23975). To be noted: ligand/control protriptyline.
The mark [14] stands for this setting: IPP screening at 10 uM, control (±)DOI.

Like-named read-outs stand apart in the source and are kept apart here.

Results on five compounds are retold here after paper PMC11879040, “Advancing systemic toxicity risk assessment: Evaluation of a NAM-based toolbox approach” (Toxicological Sciences, 2024).

Sequence of Mu-type opioid receptor, OPRM1 (h) (P35372 whole entry): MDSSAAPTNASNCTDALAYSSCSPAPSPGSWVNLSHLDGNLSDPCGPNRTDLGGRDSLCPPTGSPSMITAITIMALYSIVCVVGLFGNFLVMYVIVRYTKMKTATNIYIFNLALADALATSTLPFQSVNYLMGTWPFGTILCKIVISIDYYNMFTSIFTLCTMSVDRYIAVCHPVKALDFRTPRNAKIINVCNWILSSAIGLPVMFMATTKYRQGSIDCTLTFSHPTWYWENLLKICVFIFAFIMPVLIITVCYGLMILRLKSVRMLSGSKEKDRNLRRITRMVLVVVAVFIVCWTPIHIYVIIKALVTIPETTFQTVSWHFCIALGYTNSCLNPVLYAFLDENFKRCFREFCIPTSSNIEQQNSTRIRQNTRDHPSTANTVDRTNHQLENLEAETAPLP
Sequence of Sodium-dependent noradrenaline transporter, SLC6A2 (h) (P23975 whole entry): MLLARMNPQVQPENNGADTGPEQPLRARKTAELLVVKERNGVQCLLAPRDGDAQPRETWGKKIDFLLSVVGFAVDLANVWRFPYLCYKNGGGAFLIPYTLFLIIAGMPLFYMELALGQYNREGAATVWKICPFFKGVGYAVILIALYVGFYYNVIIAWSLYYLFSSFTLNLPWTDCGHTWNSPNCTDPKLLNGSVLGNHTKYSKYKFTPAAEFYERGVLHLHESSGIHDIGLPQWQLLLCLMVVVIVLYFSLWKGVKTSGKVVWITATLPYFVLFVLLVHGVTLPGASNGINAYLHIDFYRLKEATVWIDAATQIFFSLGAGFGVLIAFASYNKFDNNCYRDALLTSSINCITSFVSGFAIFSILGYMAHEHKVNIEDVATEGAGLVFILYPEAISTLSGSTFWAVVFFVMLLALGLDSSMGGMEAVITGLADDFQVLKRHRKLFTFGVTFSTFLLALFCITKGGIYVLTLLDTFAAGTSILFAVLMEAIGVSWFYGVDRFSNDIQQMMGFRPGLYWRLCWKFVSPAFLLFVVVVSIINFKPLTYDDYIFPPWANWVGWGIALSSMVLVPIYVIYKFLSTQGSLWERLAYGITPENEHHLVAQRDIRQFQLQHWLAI
Sequence of Dopamine receptor D1, DRD1 (h) (P21728 whole entry): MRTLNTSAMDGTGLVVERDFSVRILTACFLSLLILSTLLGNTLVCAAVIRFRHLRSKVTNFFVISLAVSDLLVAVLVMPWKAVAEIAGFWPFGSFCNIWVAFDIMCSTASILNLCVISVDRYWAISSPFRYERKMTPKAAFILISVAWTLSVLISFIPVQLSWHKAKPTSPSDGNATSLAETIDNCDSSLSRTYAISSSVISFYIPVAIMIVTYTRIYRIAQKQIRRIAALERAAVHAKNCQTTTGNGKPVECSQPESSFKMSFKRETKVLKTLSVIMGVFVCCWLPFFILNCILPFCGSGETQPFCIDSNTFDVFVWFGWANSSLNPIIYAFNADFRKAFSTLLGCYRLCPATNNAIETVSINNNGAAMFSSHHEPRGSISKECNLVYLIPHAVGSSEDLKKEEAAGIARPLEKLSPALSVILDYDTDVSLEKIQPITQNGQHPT
Sequence of 5-hydroxytryptamine receptor 2B, HTR2B (h) (P41595 whole entry): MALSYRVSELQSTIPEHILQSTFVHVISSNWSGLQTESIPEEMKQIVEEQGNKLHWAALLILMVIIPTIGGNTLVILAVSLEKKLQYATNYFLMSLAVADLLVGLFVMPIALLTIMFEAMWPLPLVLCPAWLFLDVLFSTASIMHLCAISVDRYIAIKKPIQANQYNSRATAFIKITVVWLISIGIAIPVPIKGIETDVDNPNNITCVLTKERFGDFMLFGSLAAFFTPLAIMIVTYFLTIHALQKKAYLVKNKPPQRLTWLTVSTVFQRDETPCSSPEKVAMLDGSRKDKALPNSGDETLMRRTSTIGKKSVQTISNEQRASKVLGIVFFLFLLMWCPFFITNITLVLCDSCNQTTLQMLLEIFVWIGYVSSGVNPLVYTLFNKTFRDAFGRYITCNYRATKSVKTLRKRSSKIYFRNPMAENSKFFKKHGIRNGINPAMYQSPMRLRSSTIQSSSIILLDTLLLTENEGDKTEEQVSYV
T4 sequence (P20309 whole entry): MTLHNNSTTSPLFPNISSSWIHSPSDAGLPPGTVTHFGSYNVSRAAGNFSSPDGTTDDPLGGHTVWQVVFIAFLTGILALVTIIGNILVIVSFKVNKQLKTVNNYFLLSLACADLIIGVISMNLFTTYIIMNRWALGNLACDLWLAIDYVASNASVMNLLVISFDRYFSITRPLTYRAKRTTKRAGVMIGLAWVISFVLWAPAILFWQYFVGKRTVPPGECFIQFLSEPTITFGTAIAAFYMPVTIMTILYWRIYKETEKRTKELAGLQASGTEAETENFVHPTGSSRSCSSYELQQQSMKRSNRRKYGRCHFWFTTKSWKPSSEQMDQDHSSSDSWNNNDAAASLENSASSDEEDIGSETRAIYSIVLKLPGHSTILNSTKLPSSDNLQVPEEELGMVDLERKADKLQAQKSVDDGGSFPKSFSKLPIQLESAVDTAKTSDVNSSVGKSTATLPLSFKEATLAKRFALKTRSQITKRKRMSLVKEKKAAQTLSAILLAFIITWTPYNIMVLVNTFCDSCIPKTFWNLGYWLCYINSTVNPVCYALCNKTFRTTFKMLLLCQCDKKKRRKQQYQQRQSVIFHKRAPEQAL

Turning to `CCOP(=S)(OCC)Oc1nc(Cl)c(Cl)cc1Cl` [Chlorpyrifos, O,O-Diethyl O-(3,5,6-trichloropyridin-2-yl) phosphorothioate], the Specific binding in [1] is 3.1%; in [2] (IPP screening at 10 uM), -5.6%; in experiment [3] (IPP screening at 10 uM) it was -2.4%; in [4] it was 13.4%; in [9] (IPP screening at 10 uM) it was 0.1%; in experiment [10] (IPP screening at 10 uM), 1.9%. Also, the Specific binding in [11] (setting [14]) worked out at 82.5%; in experiment [12] (IPP screening at 10 uM), 29.9%. For the same compound, the “IPP screening %, Specific binding” value came to 5.8% in experiment [5], 0.5% in experiment [6] (10 uM) and 63.4% in experiment [13] (10 uM). The “pod_httr_bifrost PoD” value in experiment [7] is recorded as 0.07063 µM; in experiment [8], 0.08218 µM. Besides, the “podl_path_minbmd PoD” value in [7] is 1.957 µM; in experiment [8], 3.743 µM.
In the case of `CC(C)(C)c1ccc(CCOc2ncnc3ccccc23)cc1` [Fenazaquin, 4-[2-(4-tert-Butylphenyl)ethoxy]quinazoline], the Specific binding in experiment [1] is given as 8.2%; in experiment [2] (IPP screening at 10 uM), 12.0%; in experiment [3] (IPP screening at 10 uM), -1.2%; in experiment [4] (IPP screening at 10 uM, control veratridine), 39.5%; in [9] (IPP screening at 10 uM), 2.7%; in experiment [10] (IPP screening at 10 uM) it was 4.5%. Further, the values for the Specific binding in [11] (setting [14]) and in experiment [12] (IPP screening at 10 uM) were 77.1% and 16.1%, respectively. The “IPP screening %, Specific binding” value in experiment [5] turned out to be 11.5%; in experiment [6] (10 uM), 8.6%; in [13] (10 uM), 69.3%. Further, the “pod_httr_bifrost PoD” value was determined as 0.006087 µM in experiment [7] and 0.001313 µM in [8]. Also, the “podl_path_minbmd PoD” value was determined as 0.07466 µM in [7] and 0.3873 µM in experiment [8].
For `CC1(C)O[C@@H]2[C@@H](CO[C@@]3(COS(N)(=O)=O)OC(C)(C)O[C@@H]23)O1` [Topiramate, [(3aS,5aR,8aR,8bS)-2,2,7,7-Tetramethyltetrahydro-2H,3aH,7H-bis[1,3]dioxolo[4,5-b:4',5'-d]pyran-3a-yl]methyl sulfamate (non-preferred name)], the Specific binding is listed as 12.2% in experiment [2] (IPP screening at 100 uM); 3.5% in experiment [3] (IPP screening at 100 uM); 30.2% in experiment [4] (IPP screening at 100 uM, control veratridine); 5.1% in [9] (IPP screening at 100 uM); -2.4% in experiment [10] (IPP screening at 100 uM); -0.4% in experiment [11] (IPP screening at 100 uM; control ±)DOI). For the same compound, in experiment [12] (IPP screening at 100 uM), the Specific binding is reported as 0.9%. Besides, the “IPP screening %, Specific binding” value is on record as -7.3% in experiment [6] (100 uM) and 5.7% in [13] (100 uM). Also, the “pod_httr_bifrost PoD” value in [7] was found to be 28.4144 µM; in experiment [8], 22.6252 µM. Besides, the figures for the “podl_path_minbmd PoD” value in experiment [7] and in experiment [8] were 48.7054 µM and 512.687 µM, respectively.
For “(4S,4aR,5S,5aR,6S,12aS)-4-(Dimethylamino)-3,5,6,10,12,12a-hexahydroxy-6-methyl-1,11-dioxo-1,4,4a,5,5a,6,11,12a-octahydrotetracene-2-carboxamide--hydrogen chloride (1/1) [Oxytetracycline hydrochloride]”, the Specific binding was 0.8% in [1]; 0.6% in experiment [3] (IPP screening at 10 uM); 10.5% in experiment [4]; -1.2% in experiment [9] (IPP screening at 10 uM); 1.4% in [10] (IPP screening at 10 uM); 5.9% in [11] (setting [14]). In addition, the Specific binding in experiment [12] (IPP screening at 10 uM) was found to be 3.3%. For the same compound, the “IPP screening %, Specific binding” value in [6] (10 uM) is on record as -8.1%; in experiment [13] (10 uM), -8.5%.
For the compound “mixture of 2- and 3-tert-butyl-4-methoxyphenol [Butylated Hydroxyanisole]”, the Specific binding in experiment [1] is given as 6.7%; in experiment [2] (IPP screening at 10 uM), 8.4%; in experiment [3] (IPP screening at 10 uM), 0.4%; in experiment [4], 16.8%; in [9] (IPP screening at 10 uM), -10.4%; in [10] (IPP screening at 10 uM), 3.5%. In addition, the Specific binding in experiment [11] (setting [14]) is 80.6%; in experiment [12] (IPP screening at 10 uM), 7.1%. Further, the “IPP screening %, Specific binding” value in experiment [5] was -7.7%; in experiment [6] (10 uM) it was -1.0%; in [13] (10 uM) it was 13.9%.
